Measured values taken from US7592372B2, “Liquid drug preparations” (Hisamitsu Pharmaceutical Co., Inc., priority 2001, dated 2009).

Experiments:
Format in all cases: physicochemical
[1] = Residual ratio of fudostein (HPLC) after preservation at 70° C. for seven days
Protocol: (§1) Aqueous solutions containing 8 g of fudostein were adjusted to pH 2-7 using an appropriate amount of phosphoric acid or sodium hydroxide as shown in Table 1. Purified water was added to make the total amount of each solution 100 ml, thereby obtaining liquid fudostein preparations with different pHs. The liquid preparations were preserved at 70° C. for seven days to examine the residual ratio of fudostein in the solutions, color change, and sedimentation. The residual ratio of fudostein was calculated from the amount of fudostein determined by quantitative analysis using HPLC. The color change and sedimentation were evaluated by naked eye observation and rated according to the following standard.
(§2) Purified water was added to make the total amount of each solution 100 ml, thereby obtaining liquid fudostein preparations. […]
(§3) Aqueous solutions containing 8 g of fudostein and D-sorbitol in the amounts shown in Table 5 were adjusted to pH 3.5 by adding phosphoric acid. Purified water was added to make the total amount of each solution 100 ml, thereby obtaining liquid fudostein preparations.

[2] = Color change by naked eye observation after preservation at 70° C. for seven days; note: key: −: There was no color change in the liquid preparation; ±: There was slight color change in the liquid preparation; +: There was color change in the liquid preparation; ++: There was remarkable color change in the liquid preparation
Protocol: as §1
Evaluation standard for color change:
as §2, §3

[3] = Overall stability of liquid fudostein preparations after preservation at 70° C. for seven days; settings: 8 g fudostein/100 ml
Protocol: as §1, with “standard. Aqueous solutions containing 8 g of fudostein and D-sorbitol in the amounts shown in Table 5 were adjusted to pH 3.5 by adding phosphoric acid. Purified water was added to make the total amount of each solution 100 ml, thereby obtaining liquid fudostein preparations.” for “standard.”

[4] = Sedimentation by naked eye observation after preservation at 70° C. for seven days
Protocol: as §1, with “standard. […] (Results) Aqueous solutions containing 8 g of fudostein and D-sorbitol in the amounts shown in Table 5 were adjusted to pH 3.5 by adding phosphoric acid. Purified water was added to make the total amount of each solution 100 ml, thereby obtaining liquid fudostein preparations.” for “standard.”

[5] = 8 g fudostein/100 ml aqueous solution, pH 2.0, 70° C. for seven days
[6] = 8 g fudostein/100 ml aqueous solution, pH 2.5, 70° C. for seven days
[7] = 8 g fudostein/100 ml aqueous solution, pH 3.0, 70° C. for seven days
[8] = 8 g fudostein/100 ml aqueous solution, pH 3.5, 70° C. for seven days
[9] = 8 g fudostein/100 ml aqueous solution, pH 4.0, 70° C. for seven days
[10] = 8 g fudostein/100 ml aqueous solution, pH 5.0, 70° C. for seven days
[11] = 8 g fudostein/100 ml aqueous solution, pH 6.0, 70° C. for seven days
[12] = 8 g fudostein/100 ml aqueous solution, pH 7.0, 70° C. for seven days
[13] = 8 g fudostein/100 ml, D-sorbitol 0%, pH 3.5, 70° C. for seven days
[14] = 8 g fudostein/100 ml, D-sorbitol 10%, pH 3.5, 70° C. for seven days
[15] = 8 g fudostein/100 ml, D-sorbitol 20%, pH 3.5, 70° C. for seven days
[16] = 8 g fudostein/100 ml, D-sorbitol 30%, pH 3.5, 70° C. for seven days
[17] = 8 g fudostein/100 ml, D-sorbitol 40%, pH 3.5, 70° C. for seven days
[18] = 8 g fudostein/100 ml, D-sorbitol 50%, pH 3.5, 70° C. for seven days

SMILES: N[C@@H](CSCCCO)C(=O)O [fudostein, S-(3-hydroxypropyl)-L-cysteine]
- Analytical value Residual ratio (%) [1, 5]: 99.9%
- Analytical value Residual ratio (%) [1, 6]: 100.0%
- Analytical value Residual ratio (%) [1, 7]: 100.7%
- Analytical value Residual ratio (%) [1, 8]: 100.3%
- Analytical value Residual ratio (%) [1, 9]: 101.1%
- Analytical value Residual ratio (%) [1, 10]: 100.1%
- Analytical value Residual ratio (%) [1, 11]: 100.4%
- Analytical value Residual ratio (%) [1, 12]: 99.4%
- Analytical value Residual ratio (%) ([1]; 8 g fudostein/100 ml, D-sorbitol 0%, pH 3.5 (phosphoric acid), 70° C. for seven days): 99.6%
- Analytical value Residual ratio (%) ([1]; 8 g fudostein/100 ml, D-sorbitol 10%, pH 3.5 (phosphoric acid), 70° C. for seven days): 99.4%
- Analytical value Residual ratio (%) ([1]; 8 g fudostein/100 ml, D-sorbitol 20%, pH 3.5 (phosphoric acid), 70° C. for seven days): 99.0%
- Analytical value Residual ratio (%) ([1]; 8 g fudostein/100 ml, D-sorbitol 30%, pH 3.5 (phosphoric acid), 70° C. for seven days): 99.3%
- Analytical value Residual ratio (%) ([1]; 8 g fudostein/100 ml, D-sorbitol 40%, pH 3.5 (phosphoric acid), 70° C. for seven days): 99.9%
- Analytical value Residual ratio (%) ([1]; 8 g fudostein/100 ml, D-sorbitol 50%, pH 3.5 (phosphoric acid), 70° C. for seven days): 100.4%
- Color change [2, 5]: −
- Color change [2, 6]: −
- Color change [2, 7]: −
- Color change [2, 8]: −
- Color change [2, 9]: −
- Color change [2, 10]: ±
- Color change [2, 11]: +
- Color change [2, 12]: ++
- Color change [2, 13]: −
- Color change [2, 14]: −
- Color change [2, 15]: −
- Color change [2, 16]: −
- Color change [2, 17]: ±
- Color change [2, 18]: +
- pH at which the liquid fudostein preparation remains stable ([3]; 70° C. for seven days): ≤ 5.0
- sugar alcohol concentration at which liquid fudostein preparations are stable ([3]; D-sorbitol, pH 3.5, 70° C. for seven days): ≤ 40%
- Sedimentation [4, 5]: ± (Slight sedimentation was observed.)
- Sedimentation [4, 6]: ± (Slight sedimentation was observed.)
- Sedimentation [4, 7]: −
- Sedimentation [4, 8]: −
- Sedimentation [4, 9]: −
- Sedimentation [4, 10]: −
- Sedimentation [4, 11]: −
- Sedimentation [4, 12]: −
- Sedimentation [4, 13]: −
- Sedimentation [4, 14]: −
- Sedimentation [4, 15]: −
- Sedimentation [4, 16]: −
- Sedimentation [4, 17]: + (Sedimentation was observed.)
- Sedimentation [4, 18]: + (Sedimentation was observed.)
